The record followed here is ChEMBL document CHEMBL1201862, “PubChem BioAssay data set” (2004).

Test systems include UO-31; Malme-3M; KM12; SF-268; NCI-H23; NCI-H226; OVCAR-3; 786-0; NCI-H460; MDA-MB-435; T47D; SNB-19; DU-145; A549; SK-MEL-5; MCF7; MDA-MB-231; MOLT-4; SW-620; NCI/ADR-RES.
Common to all, as to test: growth of human tumour cells (NCI), 48 h

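Method: 48-hour compound exposure of cells in 96-well plates, five concentrations, linear interpolation of endpoints. Here, GI50 denotes the concentration required for 50% inhibition of growth.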 The source made the active and inactive calls. Rule as the data show it: active = GI50 up to about 1.1 µM and inactive = higher. Where only a bound is given, the exact number is not on record here.

Consider `Nc1nc(SCc2ccccc2)c2ncn(Cc3ccccc3)c2n1`, for which the GI50 was > 100 µM (inactive) with UO-31; > 57.9 µM (inactive) with Malme-3M; > 86.9 µM (inactive) in the experiment with KM12; > 84.7 µM (inactive) in the experiment on SF-268; > 67.8 µM (inactive) with NCI-H23; > 100 µM (inactive) in the experiment on NCI-H226. In addition, the GI50 was > 67.5 µM (inactive) in the experiment with OVCAR-3; > 100 µM (inactive) in the experiment with 786-0; > 79.4 µM (inactive) with NCI-H460; > 71.8 µM (inactive) in the experiment on MDA-MB-435; > 47.6 µM (inactive) in the experiment with T47D; > 100 µM (inactive) in the experiment with SNB-19. Further, the GI50 is > 100 µM (inactive) in the experiment with DU-145; > 96.2 µM (inactive) in the experiment on A549; > 63 µM (inactive) in the experiment with SK-MEL-5; > 90.8 µM (inactive) in the experiment with MCF7; > 100 µM (inactive) in the experiment on MDA-MB-231; > 100 µM (inactive) in the experiment with MOLT-4. Moreover, the GI50 in the experiment on SW-620 and with NCI/ADR-RES was > 100 µM (inactive) throughout.
Take `CN(C)CCCN1c2ccccc2Sc2ccc3ccccc3c21`: the GI50 is 4.36 µM (inactive) with UO-31; 6.49 µM (inactive) with Malme-3M; 6.58 µM (inactive) in the experiment on KM12; 9.06 µM (inactive) in the experiment on SF-268; 14.3 µM (inactive) in the experiment with NCI-H23; 6.58 µM (inactive) in the experiment on NCI-H226. In addition, the GI50 was 8.49 µM (inactive) in the experiment with OVCAR-3; 11 µM (inactive) in the experiment with 786-0; 2.79 µM (inactive) in the experiment on NCI-H460; 3.1 µM (inactive) in the experiment on MDA-MB-435; 2.05 µM (inactive) with T47D; 14.8 µM (inactive) in the experiment on SNB-19. The GI50 in the experiment on DU-145 is 12.8 µM (inactive); in the experiment on A549, 13.2 µM (inactive); in the experiment with SK-MEL-5 it was 4.17 µM (inactive); in the experiment with MCF7, 5.75 µM (inactive); with MDA-MB-231, 3.15 µM (inactive); in the experiment with MOLT-4 it was 2.92 µM (inactive). The results for the GI50 in the experiment on SW-620 and in the experiment with NCI/ADR-RES were 8.3 µM (inactive) and 7.82 µM (inactive), respectively.
`COc1ccc(N2N=NN(C(C)C)/C2=C(/Cl)c2nnnn2-c2ccc(OC)cc2)cc1`: the GI50 with UO-31 was 5.97 µM (inactive); with Malme-3M, 11.4 µM (inactive); in the experiment with KM12, 17.1 µM (inactive); with SF-268, 16.2 µM (inactive); in the experiment on NCI-H23 it was 16.8 µM (inactive); in the experiment with NCI-H226, 20.2 µM (inactive). Besides, the GI50 is 9.62 µM (inactive) with OVCAR-3; 2.76 µM (inactive) in the experiment on 786-0; 18.7 µM (inactive) in the experiment with NCI-H460; 12.6 µM (inactive) in the experiment with MDA-MB-435; 4.55 µM (inactive) with T47D; 16 µM (inactive) with SNB-19. The GI50 in the experiment on DU-145 is 8.11 µM (inactive); with A549, 17.8 µM (inactive); in the experiment on SK-MEL-5 it was 15.2 µM (inactive); in the experiment with MCF7, 9.46 µM (inactive); in the experiment on MDA-MB-231 it was 9.14 µM (inactive); in the experiment on MOLT-4, 4.61 µM (inactive). In addition, the GI50 with SW-620 was 1.82 µM (inactive); with NCI/ADR-RES it was 27.7 µM (inactive).
As for `N#CC1C(=O)SC2c3ccccc3C(=O)c3ccccc3C12` (stereo not given), the GI50 with UO-31, in the experiment on Malme-3M, in the experiment on KM12, with SF-268, in the experiment on NCI-H23 and with NCI-H226 was > 10 µM (inactive) throughout. Besides, the GI50 in the experiment on OVCAR-3, with 786-0, with NCI-H460, in the experiment with MDA-MB-435, in the experiment with T47D and in the experiment on SNB-19 was > 10 µM (inactive) in each case. Also, the GI50 in the experiment with DU-145, in the experiment with A549, in the experiment with SK-MEL-5, with MCF7, in the experiment with MDA-MB-231 and in the experiment on MOLT-4 was > 10 µM (inactive) in each case. Besides, the GI50 with SW-620 and with NCI/ADR-RES was > 10 µM (inactive) each time.
`CC(C)(CO)NC1=C(Cl)C(=O)c2c(O)ccc(O)c2C1=O`: the GI50 was 1.55 µM (inactive) in the experiment on UO-31; 1.87 µM (inactive) in the experiment on Malme-3M; 1.43 µM (inactive) in the experiment with KM12; 2.61 µM (inactive) in the experiment with SF-268; 1.58 µM (inactive) in the experiment with NCI-H23; 2.16 µM (inactive) in the experiment on NCI-H226. Further, the GI50 in the experiment with OVCAR-3 is 1.55 µM (inactive); in the experiment with 786-0, 1.46 µM (inactive); in the experiment on NCI-H460, 2.42 µM (inactive); in the experiment on MDA-MB-435, 1.15 µM (inactive); with T47D, 1.93 µM (inactive); in the experiment with SNB-19 it was 1.77 µM (inactive). Further, the GI50 in the experiment with DU-145 is 1.9 µM (inactive); in the experiment on A549, 1.86 µM (inactive); in the experiment on SK-MEL-5, 1.09 µM (active); in the experiment on MCF7, 1.33 µM (inactive); in the experiment with MDA-MB-231, 1.61 µM (inactive); in the experiment with MOLT-4, 0.568 µM (active). The GI50 was 0.327 µM (active) with SW-620 and 1.88 µM (inactive) with NCI/ADR-RES.
Consider `Cc1ccc(N/N=C/C2=CC(C)(C)C(C#N)(C#N)C(O)=C2C#N)cc1`, for which the GI50 in the experiment with UO-31 was 37.7 µM (inactive); in the experiment with Malme-3M, > 100 µM (inactive); in the experiment with KM12 it was 32.4 µM (inactive); in the experiment on SF-268 it was 49 µM (inactive); in the experiment on NCI-H23, 39.4 µM (inactive); with NCI-H226, > 100 µM (inactive). The GI50 with OVCAR-3 is 36.6 µM (inactive); in the experiment with 786-0, 66.4 µM (inactive); in the experiment with NCI-H460, 24.6 µM (inactive); in the experiment with MDA-MB-435, 62.5 µM (inactive); in the experiment on T47D, 67.3 µM (inactive); with SNB-19 it was 86.5 µM (inactive). The GI50 in the experiment on DU-145 is 66.7 µM (inactive); with A549, 36.5 µM (inactive); in the experiment with SK-MEL-5, 40.7 µM (inactive); in the experiment on MCF7, > 100 µM (inactive); in the experiment on MDA-MB-231, 44.6 µM (inactive); with MOLT-4 it was 30.5 µM (inactive). In addition, the GI50 in the experiment with SW-620 was 24.8 µM (inactive); in the experiment on NCI/ADR-RES, 56 µM (inactive).
Consider `CC(C)(C)[Si](C)(C)OCC1OC(n2cnc3c(=O)[nH]c(N)nc32)C(O[Si](C)(C)C(C)(C)C)C1O[Si](C)(C)C(C)(C)C` (stereo not given), for which the GI50 is 5.11 µM (inactive) in the experiment on UO-31; 1.88 µM (inactive) in the experiment on Malme-3M; 1.64 µM (inactive) with KM12; 2.58 µM (inactive) in the experiment with SF-268; 1.44 µM (inactive) in the experiment with NCI-H23; 2.84 µM (inactive) with NCI-H226. For the same molecule, the GI50 with OVCAR-3 is 1.47 µM (inactive); with 786-0 it was 1.67 µM (inactive); with NCI-H460, 1.32 µM (inactive); with MDA-MB-435, 1.47 µM (inactive); in the experiment on T47D it was 2.09 µM (inactive); in the experiment with SNB-19, 2.29 µM (inactive). In addition, the GI50 was 2.33 µM (inactive) with DU-145; 2.34 µM (inactive) with A549; 0.594 µM (active) in the experiment with SK-MEL-5; 2.33 µM (inactive) in the experiment on MCF7; 3.71 µM (inactive) with MDA-MB-231; 1.24 µM (inactive) with MOLT-4. The figures for the GI50 in the experiment on SW-620 and with NCI/ADR-RES were 2.47 µM (inactive) and > 100 µM (inactive), respectively.
In the case of `CC(C)=CCNc1ncnc2c1ncn2CCC(=O)O`, the GI50 with UO-31, in the experiment on Malme-3M, in the experiment with KM12, in the experiment with SF-268, with NCI-H23 and in the experiment on NCI-H226 was > 100 µM (inactive) each time. Further, the GI50 in the experiment with OVCAR-3, with 786-0, with NCI-H460, with MDA-MB-435, in the experiment on T47D and with SNB-19 was > 100 µM (inactive) in each case. The GI50 with DU-145, in the experiment with A549, with SK-MEL-5, with MCF7, in the experiment on MDA-MB-231 and in the experiment with MOLT-4 was > 100 µM (inactive) in each case. Further, the GI50 in the experiment with SW-620 and with NCI/ADR-RES was > 100 µM (inactive) in each case.
Take `CN(CCc1ccccn1)c1ccc2c(c1)Cc1ccccc1-2`: the GI50 is 38.2 µM (inactive) in the experiment on UO-31; 9.68 µM (inactive) in the experiment on Malme-3M; 14.4 µM (inactive) in the experiment on KM12; 6.5 µM (inactive) in the experiment with SF-268; 27.7 µM (inactive) in the experiment with NCI-H23; 14.9 µM (inactive) with NCI-H226. The GI50 in the experiment on OVCAR-3 is 26.1 µM (inactive); with 786-0, 25.8 µM (inactive); in the experiment on NCI-H460, 5.75 µM (inactive); with MDA-MB-435, 31 µM (inactive); in the experiment on T47D it was 25.2 µM (inactive); with SNB-19 it was 19.3 µM (inactive). For the same molecule, the GI50 was 43.7 µM (inactive) with DU-145; 13.6 µM (inactive) in the experiment with A549; 12.6 µM (inactive) in the experiment with SK-MEL-5; 20.1 µM (inactive) with MCF7; 3.09 µM (inactive) in the experiment on MDA-MB-231; 5.42 µM (inactive) in the experiment with MOLT-4. In addition, the results for the GI50 in the experiment with SW-620 and with NCI/ADR-RES were 48.4 µM (inactive) and 26.9 µM (inactive), respectively.
Regarding `C=C1C(=O)C23CC1C[C@H](OC(C)=O)C2C1(C)C(OC(C)=O)C[C@H](O)C(C)(C)[C@H]1C(O)[C@@H]3OC(C)=O` (stereo not given in full), the GI50 in the experiment with UO-31 was 16.9 µM (inactive); in the experiment with Malme-3M, 7.01 µM (inactive); with KM12, 33 µM (inactive); in the experiment on SF-268 it was 13.4 µM (inactive); in the experiment on NCI-H23 it was 12.6 µM (inactive); with NCI-H226, 22.1 µM (inactive). For the same molecule, the GI50 is 7.18 µM (inactive) in the experiment on OVCAR-3; 7.87 µM (inactive) in the experiment with 786-0; 26.7 µM (inactive) in the experiment with NCI-H460; 8.09 µM (inactive) with MDA-MB-435; 6.67 µM (inactive) with T47D; 21.5 µM (inactive) with SNB-19. Also, the GI50 with DU-145 was 18.1 µM (inactive); with A549, 22.9 µM (inactive); in the experiment with SK-MEL-5, 14.6 µM (inactive); with MCF7 it was 5.78 µM (inactive); in the experiment with MDA-MB-231 it was 7.19 µM (inactive); in the experiment on MOLT-4, 2.73 µM (inactive). The GI50 with SW-620 is 2.48 µM (inactive); in the experiment on NCI/ADR-RES it was > 100 µM (inactive).
